Data as given in patent publication US20220386863A1, “SMART CONTACT LENS FOR DIAGNOSIS AND TREATMENT OF DRY EYE SYNDROME” (priority 2020, published 2022).
Where two headings read alike, the source gives them in different places.

Test system: anti-VEGF aptamer
Details: for change in current on injection of VEGF: FET sensor with anti-VEGF aptamer, PBS base current, FIG. 2A
Source text: Electrodes using a gold thin film and silver nanowires were patterned on a silicon substrate using a photolithography method, and a semi-conductive layer was placed between the electrodes. In this case, silver nanowires were used as a material of the semi-conductive layer. Thereafter, an aptamer (anti-VEGF aptamer) capable of being coupled to a dry eye syndrome biomarker was coupled to the semi-conductive layer.
Specifically, a silver nanowire channel was immersed in an 3-aminopropyldimethyl-ethoxysilane (APDES)/ethanol solution to introduce an amine group, and the silver nanowire channel was immersed in a sodium carbonate buffer including 1 wt % succinic anhydride to substitute the amine group with a carboxyl group. Then, after the silver nanowire channel is immersed in a phosphate buffered saline (PBS) solution, 1-ethyl-3(3-dimethyl aminopropyl)carbodiimide hydro-chloride (EDC) and sulfa N-hydroxysuccinimide (sulfa-NHS) were added to form an amide group. An aptamer solution was introduced into the channel, into which the amide group was introduced, to couple the channel and the probe. ?
A VEGF was injected into the sensor in real time to monitor an intensity of a current flowing in the silver nanowire channel.
Specifically, 200 μL of PBS was dropped onto the FET sensor to set a base current for 30 minutes, and then, a change in current generated by injecting a specific concentration of a VEGF was observed. ?

vascular endothelial growth factor [VEGF]
change in current on injection of VEGF (104 pM VEGF injected): no difference in current
change in current on injection of VEGF (1.04 nM VEGF injected): large change
change in current on injection of VEGF (52 nM VEGF injected): large change
stabilized current after VEGF injection, averaged per section (compared with the initial base current, FIG. 2B): higher than an initial base current
